The NIST ThermoML archive (doi:10.1016/j.jct.2014.04.026)
Values joined by “and” are separate entries in the source; they are usually repeats but may differ in a detail not shown here. Identical values can stand only once. ± gives the expanded uncertainty stated by the source.

Tests used:
[1] = for vapor or sublimation pressure: Closed cell (Static) method; for Normal melting temperature: DTA
[2] = Molar enthalpy of transition or fusion; details: Crystal; DSC

Cn1ccc2ccccc21 [1-methylindole]
[1]
Details	vapor or sublimation pressure [kPa]
267.62 K, Crystal	0.00033 ± 0.0001
268.58 K, Liquid	0.00043 ± 0.0001
268.6 K, Crystal	0.00037 ± 0.0001
269.57 K, Crystal	0.00042 ± 0.0001
270.55 K, Crystal	0.00048 ± 0.0001
270.56 K, Liquid	0.00054 ± 0.0001
271.57 K, Crystal	0.00054 ± 0.0001
272.5 K, Liquid	0.00066 ± 0.0001
272.52 K, Crystal	0.0006 ± 0.0001
273.51 K, Crystal	0.00068 ± 0.0001
274.48 K, Liquid	0.00081 ± 0.0001
274.5 K, Crystal	0.00077 ± 0.0001
275.47 K, Crystal	0.00086 ± 0.0001
276.45 K, Liquid	0.00097 ± 0.0001
278.42 K, Liquid	0.0012 ± 0.00011
280.39 K, Liquid	0.00145 ± 0.00011
282.35 K, Liquid	0.00176 ± 0.00012
284.36 K, Liquid	0.00211 ± 0.00013
286.31 K, Liquid	0.00252 ± 0.00014
288.32 K, Liquid	0.00302 ± 0.00015
290.27 K, Liquid	0.00358 ± 0.00017
290.29 K, Liquid	0.00359 ± 0.00017
292.29 K, Liquid	0.00431 ± 0.0002
294.24 K, Liquid	0.00507 ± 0.00022
296.28 K, Liquid	0.00607 ± 0.00026
298.2 K, Liquid	0.0071 ± 0.0003
300.25 K, Liquid	0.00844 ± 0.00035
302.2 K, Liquid	0.00987 ± 0.0004
304.21 K, Liquid	0.01167 ± 0.00047
306.16 K, Liquid	0.01359 ± 0.00052
308.14 K, Liquid	0.0158 ± 0.00056
310.17 K, Liquid	0.01854 ± 0.0006
312.14 K, Liquid	0.02149 ± 0.00064
314.11 K, Liquid	0.02521 ± 0.0007
316.14 K, Liquid	0.029 ± 0.00076
318.06 K, Liquid	0.03354 ± 0.00083
320.05 K, Liquid	0.03839 ± 0.00091
322.02 K, Liquid	0.0445 ± 0.001
324.04 K, Liquid	0.05044 ± 0.0011
326.02 K, Liquid	0.05848 ± 0.0012
327.98 K, Liquid	0.06647 ± 0.0013
329.95 K, Liquid	0.07637 ± 0.0015
331.91 K, Liquid	0.08658 ± 0.0016
333.89 K, Liquid	0.09881 ± 0.0018
335.91 K, Liquid	0.1114 ± 0.002
337.89 K, Liquid	0.1263 ± 0.0023
339.81 K, Liquid	0.1424 ± 0.0021
341.9 K, Liquid	0.1624 ± 0.0023

Details	Normal melting temperature [°C]
[1], Crystal	3.4 ± 0.4

Details	Molar enthalpy of transition or fusion [kcal/mol]
[2]	2.61 ± 0.0956

Cn1cccn1 [1-methyl-1H-pyrazole]
[1], Liquid
Details	vapor or sublimation pressure [kPa]
253.9 K	0.0681 ± 0.0014
255.85 K	0.08089 ± 0.0016
257.81 K	0.0948 ± 0.0018
260.03 K	0.1138 ± 0.0021
261.7 K	0.1308 ± 0.002
263.65 K	0.1508 ± 0.0022
265.63 K	0.1755 ± 0.0024
267.62 K	0.2033 ± 0.0026
269.55 K	0.2358 ± 0.0029
271.5 K	0.2714 ± 0.0032
273.47 K	0.3111 ± 0.0035
275.47 K	0.3597 ± 0.0039
277.42 K	0.4115 ± 0.0044
279.4 K	0.4704 ± 0.0049
281.39 K	0.539 ± 0.0055
283.35 K	0.6108 ± 0.0061
285.3 K	0.6958 ± 0.0069
287.32 K	0.7878 ± 0.0077
289.32 K	0.893 ± 0.0086
291.27 K	1.01 ± 0.01
293.27 K	1.147 ± 0.011

Details	Normal melting temperature [°C]
[1], Crystal	-43.9 ± 0.4

Details	Molar enthalpy of transition or fusion [kcal/mol]
[2]	2.72 ± 0.0956

Cn1cnc2ccccc21 [1-methylbenzimidazole]
[1]
Details	vapor or sublimation pressure
301.22 K, Crystal	0.00026 ± 0.00011 kPa
303.14 K, Crystal	0.00033 ± 0.00011 kPa
303.16 K, Liquid	0.00051 ± 0.00011 kPa
305.14 K, Crystal	0.00042 ± 0.00011 kPa
305.18 K, Crystal	0.00041 ± 0.00011 kPa
305.2 K, Liquid	0.00062 ± 0.00011 kPa
307.12 K, Liquid	0.00074 ± 0.00011 kPa
307.14 K, Crystal	0.00051 ± 0.00011 kPa
309.1 K, Liquid	0.00089 ± 0.00011 kPa
309.11 K, Crystal	0.00063 ± 0.00011 kPa
311.07 K, Crystal	0.00078 ± 0.00011 kPa
311.09 K, Liquid	0.00107 ± 0.00012 kPa
313.09 K, Crystal	0.00097 ± 0.00012 kPa
313.12 K, Liquid	0.00128 ± 0.00012 kPa
315.09 K, Liquid	0.00153 ± 0.00012 kPa
315.1 K, Crystal	0.00119 ± 0.00012 kPa
317.04 K, Liquid	0.00182 ± 0.00013 kPa
317.06 K, Crystal	0.00146 ± 0.00012 kPa
319.03 K, Crystal	0.00178 ± 0.00013 kPa
319.07 K, Liquid	0.00217 ± 0.00014 kPa
321.01 K, Liquid	0.00255 ± 0.00015 kPa
321.02 K, Crystal	0.00217 ± 0.00014 kPa
322.97 K, Crystal	0.00264 ± 0.00015 kPa
322.99 K, Liquid	0.00304 ± 0.00016 kPa
325.01 K, Crystal	0.00324 ± 0.00017 kPa
327 K, Crystal	0.00392 ± 0.00019 kPa
328.91 K, Crystal	0.00473 ± 0.00022 kPa
332.95 K, Liquid	0.00656 ± 0.00028 kPa
334.92 K, Liquid	0.00759 ± 0.00032 kPa
336.91 K, Liquid	0.0089 ± 0.00037 kPa
336.92 K, Liquid	0.00896 ± 0.00037 kPa
338.9 K, Liquid	0.01031 ± 0.00042 kPa
340.86 K, Liquid	0.01187 ± 0.00048 kPa
340.87 K, Liquid	0.01203 ± 0.00048 kPa
342.88 K, Liquid	0.01375 ± 0.00053 kPa
344.83 K, Liquid	0.01603 ± 0.00056 kPa and 0.01591 ± 0.00056 kPa
346.81 K, Liquid	0.01835 ± 0.0006 kPa
348.79 K, Liquid	0.02107 ± 0.00064 kPa
350.76 K, Liquid	0.02401 ± 0.00068 kPa
352.73 K, Liquid	0.02767 ± 0.00074 kPa and 0.02759 ± 0.00074 kPa
354.7 K, Liquid	0.03132 ± 0.0008 kPa
356.69 K, Liquid	0.03607 ± 0.00087 kPa
358.67 K, Liquid	0.04098 ± 0.00095 kPa
360.63 K, Liquid	0.04632 ± 0.001 kPa
362.6 K, Liquid	0.05225 ± 0.0011 kPa
364.59 K, Liquid	0.05898 ± 0.0012 kPa
366.55 K, Liquid	0.06653 ± 0.0013 kPa
368.53 K, Liquid	0.07509 ± 0.0015 kPa
370.5 K, Liquid	0.08443 ± 0.0016 kPa
372.49 K, Liquid	0.09469 ± 0.0018 kPa

Details	Normal melting temperature [°C]
[1], Crystal	56.1 ± 0.4

Details	Molar enthalpy of transition or fusion [kcal/mol]
[2]	3.32 ± 0.0956
